According to patent publication US20250100996A1, “HETEROCYCLOALKYL AND HETEROARYL COMPOUNDS AND PHARMACEUTICAL COMPOSITIONS THAT MODULATE IKZF2” (Plexium, Inc., priority 2021, published 2025):

What was measured:
Format in all cases: cell-based
IKZF3 (Aiolos) = molecular target: T1, IKZF3 (Aiolos) (Homo sapiens, UniProt Q9UKT9); experiment: IKZF3 reporter degradation assay (HEK 293T IKZF3-mNeonGreen reporter cell line); details: HEK 293T IKZF3-mNeonGreen reporter, 24 hours incubation; for inhibition at 1 µM: HEK-293T, 24 h
T1 construct: Leu-Asp junction (codons ctcgac before the linker); mScarlet (behind P2A) (C, cleaved yes); expressed in transfected cells
T1 sequence (Q96SW2 whole entry partner): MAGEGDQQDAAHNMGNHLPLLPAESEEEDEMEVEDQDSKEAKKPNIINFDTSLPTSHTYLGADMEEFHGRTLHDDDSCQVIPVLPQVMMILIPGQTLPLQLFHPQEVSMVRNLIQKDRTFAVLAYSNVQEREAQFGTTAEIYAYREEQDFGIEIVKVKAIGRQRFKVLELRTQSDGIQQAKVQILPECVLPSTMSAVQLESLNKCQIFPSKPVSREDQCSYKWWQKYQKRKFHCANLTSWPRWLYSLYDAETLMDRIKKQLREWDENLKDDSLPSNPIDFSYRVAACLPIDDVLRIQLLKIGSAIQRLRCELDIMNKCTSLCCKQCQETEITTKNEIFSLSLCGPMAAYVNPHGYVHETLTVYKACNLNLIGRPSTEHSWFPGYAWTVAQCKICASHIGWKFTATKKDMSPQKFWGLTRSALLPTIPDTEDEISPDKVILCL
T1 sequence (Q16531 whole entry partner): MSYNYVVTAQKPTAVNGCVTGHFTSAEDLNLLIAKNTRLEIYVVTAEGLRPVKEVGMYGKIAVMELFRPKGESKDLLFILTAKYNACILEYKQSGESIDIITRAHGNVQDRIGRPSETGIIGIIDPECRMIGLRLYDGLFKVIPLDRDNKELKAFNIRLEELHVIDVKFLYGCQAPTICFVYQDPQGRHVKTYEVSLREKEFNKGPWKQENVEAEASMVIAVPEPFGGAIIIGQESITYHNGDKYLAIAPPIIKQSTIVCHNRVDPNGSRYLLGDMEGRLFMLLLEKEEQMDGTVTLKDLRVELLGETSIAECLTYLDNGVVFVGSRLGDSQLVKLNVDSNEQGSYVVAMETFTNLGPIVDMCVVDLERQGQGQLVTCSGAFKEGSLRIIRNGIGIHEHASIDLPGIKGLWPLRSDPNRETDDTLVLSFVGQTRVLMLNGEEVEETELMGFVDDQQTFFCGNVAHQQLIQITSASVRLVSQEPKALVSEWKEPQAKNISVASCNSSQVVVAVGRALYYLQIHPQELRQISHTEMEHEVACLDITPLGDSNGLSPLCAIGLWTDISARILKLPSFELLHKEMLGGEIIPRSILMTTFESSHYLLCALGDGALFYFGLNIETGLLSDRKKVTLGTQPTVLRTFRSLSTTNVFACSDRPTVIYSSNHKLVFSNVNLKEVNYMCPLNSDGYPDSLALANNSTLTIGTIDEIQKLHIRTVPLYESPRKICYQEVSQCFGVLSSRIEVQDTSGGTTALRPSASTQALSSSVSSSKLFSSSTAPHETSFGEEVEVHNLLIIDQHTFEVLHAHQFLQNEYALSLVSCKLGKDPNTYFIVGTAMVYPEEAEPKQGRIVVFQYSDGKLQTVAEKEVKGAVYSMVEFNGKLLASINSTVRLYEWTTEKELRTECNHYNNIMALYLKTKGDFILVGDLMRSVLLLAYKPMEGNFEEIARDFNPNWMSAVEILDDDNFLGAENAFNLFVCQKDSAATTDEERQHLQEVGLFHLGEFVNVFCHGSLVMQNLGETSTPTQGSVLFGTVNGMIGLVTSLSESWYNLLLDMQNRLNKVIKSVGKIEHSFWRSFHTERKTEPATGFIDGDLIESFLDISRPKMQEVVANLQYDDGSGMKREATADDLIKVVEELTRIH
T1 sequence (Q9UKT9 whole entry): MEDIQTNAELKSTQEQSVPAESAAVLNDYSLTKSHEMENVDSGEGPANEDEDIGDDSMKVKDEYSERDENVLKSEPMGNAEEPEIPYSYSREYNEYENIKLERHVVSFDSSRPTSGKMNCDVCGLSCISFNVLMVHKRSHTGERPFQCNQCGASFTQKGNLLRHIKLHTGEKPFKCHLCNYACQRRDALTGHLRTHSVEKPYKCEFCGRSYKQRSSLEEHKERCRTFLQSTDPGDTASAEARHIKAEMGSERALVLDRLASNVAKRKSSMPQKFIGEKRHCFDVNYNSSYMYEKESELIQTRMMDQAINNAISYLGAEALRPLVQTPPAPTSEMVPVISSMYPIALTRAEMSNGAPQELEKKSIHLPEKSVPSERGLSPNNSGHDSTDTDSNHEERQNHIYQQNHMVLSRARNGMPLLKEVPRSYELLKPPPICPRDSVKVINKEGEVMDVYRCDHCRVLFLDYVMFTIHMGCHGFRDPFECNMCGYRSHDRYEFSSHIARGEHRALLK
Method in brief: (§1)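 In reporter HEK 293T clones, the FITC exposure was 1000 ms for the IKZF2 line and 500 ms for the IKZF1 and IKZF3 lines. Imaging followed 24 h of compound treatment, and percent-positive scoring was fitted to a four-parameter logistic curve for DC50.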

GSPT1 = molecular target: T2, GSPT1 (Homo sapiens, UniProt P15170); experiment: GSPT1 reporter degradation assay (HEK293 hGSPT1 HiBiT-tagged cells); details: 24 hour incubation
T2 construct: HiBiT-tagged cells were generated using CRISPR-Cas12a technology; endogenous in cells; host or cells: HEK293 (endogenous GSPT1 locus edited with HiBiT knock-in)
T2 sequence (Q96SW2 whole entry partner): as the sequence (Q96SW2 whole entry partner) above
T2 sequence (Q16531 whole entry partner): as the sequence (Q16531 whole entry partner) above
T2 sequence (P15170 whole entry): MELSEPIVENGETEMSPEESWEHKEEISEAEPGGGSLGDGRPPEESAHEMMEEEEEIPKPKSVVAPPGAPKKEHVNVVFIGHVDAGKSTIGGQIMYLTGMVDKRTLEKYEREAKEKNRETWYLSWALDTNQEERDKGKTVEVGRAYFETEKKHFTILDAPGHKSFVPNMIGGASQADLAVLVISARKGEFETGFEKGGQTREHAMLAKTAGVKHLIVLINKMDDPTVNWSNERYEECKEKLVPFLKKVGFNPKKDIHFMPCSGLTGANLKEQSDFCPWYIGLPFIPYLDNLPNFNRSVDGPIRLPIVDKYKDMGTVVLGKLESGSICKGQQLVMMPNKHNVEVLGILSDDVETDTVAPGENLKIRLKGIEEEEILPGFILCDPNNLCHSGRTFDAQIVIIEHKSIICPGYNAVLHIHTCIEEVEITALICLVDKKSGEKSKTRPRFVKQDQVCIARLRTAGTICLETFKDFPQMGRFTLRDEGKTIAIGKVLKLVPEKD
Method: HEK293_hGSPTl_HiBiT-tagged cells were generated using CRISPR-Cas12a technology. Briefly, ˜400,000 HEK293 cells were transiently co-transfected with precomplexed ribonuclear proteins (RNPs) consisting of 80 pmol of crRNA (IDT), 62 pmol of Cas12a protein (IDT), 3 μg of ssODN donor (IDT; Alt® modifications), 78 pmol of electroporation enhancer (IDT), and 200 ng of pMaxGFP (Lonza). The transfection was performed via nucleofection (Lonza, 4D-Nucleofector X-unit) using solution P3 and program CM-130 in a ([…]) cuvette. Five days post-nucleofection, cells were single-cell-sorted for GFP+(transfected) cells by FACs in 96-well plates and clonally selected. Clones were screened and verified for the desired modification via targeted deep sequencing using gene-specific primers with partial Illumina adapter overhangs as previously described. In brief, clonal cell pellets were harvested, lysed, and used to generate gene-specific amplicons with partial Illumina adapters in PCR #1. Amplicons were indexed in PCR #2 and pooled with other targeted amplicons for other loci to create sequence diversity. Additionally, 10% PhiX sequencing control V3 (Illumina) was added to the pooled amplicon library prior to running the sample on a Miseq Sequencer System (Illumina) to generate paired 2×250 bp reads. Samples were demultiplexed using the index sequences, fastq files were generated, and NGS analysis was performed using CRIS.py. Final clones were authenticated using the PowerPlex fusion system (Promega) and tested negative for mycoplasma by the MycoAlertTMPlus mycoplasma detection kit (Lonza).
Editing construct sequences and screening primers are outlined below (sequence from 5′ to 3′). hGSPT1Cas12acrRNA, CAGE635.GSPT1.g1: […]; CAGE635.g1.anti.ssODN: ttcctcacagtattgtgcagggtcatcaagaaaatgctta[…] CAGCCGCTCACgtcCttctctggaaccagtttcagaacttttccaattgcaatggtcttacctagaaatgaaattttaa (HiBiT tag and silent blocking modifications to prevent Cas12a recutting after integration are in upper case); CAGE635.hGSPT1.DS.F: […]; CAGE635.hGSPT1.DS.R: GTGAA GTAGGCTTCTGCAGTC.
The GSPT1 degradation assay was carried out by harvesting the HEK 293T reporter cell lines and resuspending the cells in media formulated for reduced background fluorescence (FluoroBrite; Thermo Fisher). The respective cell lines were seeded at a density of 8,000 cells/well into white-opaque 384-well optical grade assay tissue culture plates (Greiner 781080-20). The cells were incubated overnight at 37° C. to allow for attachment to the assay plate. Dilutions of the compounds were prepared in DMSO from 10 mM compound stocks. Test compounds were added in a 10-point dilution series (typically 10 μM to 100 pM) using a TECAN D300e Digital Dispenser with an upper limit of 0.5% final DMSO. Plates were centrifuged at 320×g for 2 minutes at room temperature, and subsequently incubated at 37° C.
After 24 hour incubation with the compounds, the plates were allowed to cool to room temperature for 10 minutes. 30 μL of HiBiT lytic buffer+1:50 HiBiT substrate Solution were added to each well. Plates were centrifuged at 320×g for 2 minutes at room temperature and then incubated with shaking at room temperature for 10 minutes covered with foil. Plates were read on a CLARIOstar microplate reader (BMG LabTech), measuring at 450 nm (donor emission) and 610 nm or 630 nm (acceptor emission). The DC50 values were determined by regression to best fit four-parameter logistic curves using GraphPad Prism.

IKZF2 (Helios) [1] = molecular target: T3, IKZF2 (Helios) (Homo sapiens, UniProt Q96SW2+Q9UKS7); experiment: IKZF2 reporter degradation assay (HEK 293T IKZF2-mNeonGreen reporter cell line); details: HEK-293T, 24 h, @ 1 μM, HEK 293T IKZF2-mNeonGreen reporter, 24 hours incubation
T3 construct: Leu-Asp junction (codons ctcgac before the linker); mScarlet (behind P2A) (C, cleaved yes); expressed in transfected cells
T3 sequence (Q9UKS7 whole entry): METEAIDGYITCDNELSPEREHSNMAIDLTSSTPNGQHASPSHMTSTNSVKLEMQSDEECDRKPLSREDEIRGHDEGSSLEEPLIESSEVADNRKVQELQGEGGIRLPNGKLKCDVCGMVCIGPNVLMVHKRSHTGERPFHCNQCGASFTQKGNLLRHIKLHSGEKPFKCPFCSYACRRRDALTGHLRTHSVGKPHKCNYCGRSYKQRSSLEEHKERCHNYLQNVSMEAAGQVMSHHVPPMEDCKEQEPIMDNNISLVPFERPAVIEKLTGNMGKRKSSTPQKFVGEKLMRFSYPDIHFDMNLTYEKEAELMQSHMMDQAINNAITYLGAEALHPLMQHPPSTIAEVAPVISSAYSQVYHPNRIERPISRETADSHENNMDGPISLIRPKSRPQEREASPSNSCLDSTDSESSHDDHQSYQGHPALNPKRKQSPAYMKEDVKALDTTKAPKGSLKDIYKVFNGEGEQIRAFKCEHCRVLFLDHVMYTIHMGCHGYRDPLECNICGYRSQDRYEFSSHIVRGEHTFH
T3 sequence (Q96SW2 whole entry): as the sequence (Q96SW2 whole entry partner) above
T3 sequence (Q16531 whole entry partner): as the sequence (Q16531 whole entry partner) above
Method in brief: as §1

IKZF2 (Helios) [2] = molecular target: T4, IKZF2 (Helios) (Homo sapiens, UniProt Q9UKS7); experiment: as above; details: HEK 293T IKZF2-mNeonGreen reporter, 24 hours incubation
T4 construct: Leu-Asp junction (codons ctcgac before the linker); mScarlet (behind P2A) (C, cleaved yes); expressed in transfected cells
T4 sequence (Q9UKS7 whole entry): as the sequence (Q9UKS7 whole entry) above
T4 sequence (Q96SW2 whole entry, further chain): as the sequence (Q96SW2 whole entry partner) above
T4 sequence (Q16531 whole entry partner): as the sequence (Q16531 whole entry partner) above
Method in brief: as §1

SMILES | DC50 (IKZF3 (Aiolos)) [nM] | DC50 (GSPT1) [nM] | inhibition at 1 µM (IKZF2 (Helios) [1]) [%] | DC50 (IKZF2 (Helios) [2]) [nM] | inhibition at 1 µM (IKZF3 (Aiolos)) [%]
CC1(C(=O)N2CCC(C3CN([C@H]4CCCC[C@@H]4Oc4ccc5c(c4)CN(C4CCC(=O)NC4=O)C5=O)C3)CC2)COC1 (stereo partly drawn) [Compound 29-A, 3-(5-(((1S,2S)-2-(3-(1-(3-methyloxetane-3-carbonyl)piperidin-4-yl)azetidin-1-yl)cyclohexyl)oxy)-1-oxoisoindolin-2-yl)piperidine-2,6-dione] | > 30000 | > 30000 | 83.2 | 11 | –
O=C1CCC(N2Cc3cc(O[C@H]4CCCC[C@@H]4N4CC(C5CCOCC5F)C4)ccc3C2=O)C(=O)N1 (stereo partly drawn) [Compound 55-A, 3-(5-(((1S,2S)-2-(3-(3-fluorotetrahydro-2H-pyran-4-yl)azetidin-1-yl)cyclohexyl)oxy)-1-oxoisoindolin-2-yl)piperidine-2,6-dione] | > 30000 | > 30000 | 83.8 | 5 | –
O=C1CCC(N2Cc3cc(O[C@H]4CCCC[C@@H]4N4CC(C5CCOC5)C4)ccc3C2=O)C(=O)N1 (stereo partly drawn) [Compound 14-A, 3-(1-oxo-5-(((1S,2S)-2-(3-(tetrahydrofuran-3-yl)azetidin-1-yl)cyclohexyl)oxy)isoindolin-2-yl)piperidine-2,6-dione] | > 30000 | > 30000 | 67.4 | 28 | –
O=C1CCC(N2Cc3cc(O[C@H]4CCCC[C@@H]4N4CC(C5CCN(C(=O)C6(F)CC6)CC5)C4)ccc3C2=O)C(=O)N1 (stereo partly drawn) [Compound 42-A, 3-(5-(((1S,2S)-2-(3-(1-(1-fluorocyclopropane-1-carbonyl)piperidin-4-yl)azetidin-1-yl)cyclohexyl)oxy)-1-oxoisoindolin-2-yl)piperidine-2,6-dione] | 21 | > 30000 | 87.3 | 1 | 31
CC1(C(=O)N2CCC(C3CN([C@H]4CCCC[C@@H]4Oc4ccc5c(c4)CN(C4CCC(=O)NC4=O)C5=O)C3)CC2)CCCC1 (stereo partly drawn) [Compound 33-A, 3-(5-(((1S,2S)-2-(3-(1-(1-methylcyclopentane-1-carbonyl)piperidin-4-yl)azetidin-1-yl)cyclohexyl)oxy)-1-oxoisoindolin-2-yl)piperidine-2,6-dione] | 6 | > 30000 | 88.4 | – | 60.8
O=C1CCC(N2Cc3cc(O[C@H]4CCCC[C@@H]4N4CC(c5ccc6cccnc6c5)C4)ccc3C2=O)C(=O)N1 (stereo partly drawn) [Compound 87-B, 3-(1-oxo-5-(((1S,2S)-2-(3-(quinolin-7-yl)azetidin-1-yl)cyclohexyl)oxy)isoindolin-2-yl)piperidine-2,6-dione] | > 30000 | > 30000 | 87.5 | 4 | –
N#CC1(C(=O)N2CCC(C3CN([C@H]4CCCC[C@@H]4Oc4ccc5c(c4)CN(C4CCC(=O)NC4=O)C5=O)C3)CC2)CCC1 (stereo partly drawn) [Compound 30-A, 1-(4-(1-((1S,2S)-2-((2-(2,6-dioxopiperidin-3-yl)-1-oxoisoindolin-5-yl)oxy)cyclohexyl)azetidin-3-yl)piperidine-1-carbonyl)cyclobutane-1-carbonitrile] | 14 | > 30000 | 84.4 | 0.5 | 63.4
CC12CC(C(=O)N3CCC(C4CN([C@H]5CCCC[C@@H]5Oc5ccc6c(c5)CN(C5CCC(=O)NC5=O)C6=O)C4)CC3)(C1)C2 (stereo partly drawn) [Compound 28-A, 3-(5-(((1S,2S)-2-(3-(1-(3-methylbicyclo[1.1.1]pentane-1-carbonyl)piperidin-4-yl)azetidin-1-yl)cyclohexyl)oxy)-1-oxoisoindolin-2-yl)piperidine-2,6-dione] | 13 | > 30000 | 82.5 | 2 | 67.5

The remaining lines, values ahead:

DC50 (IKZF3 (Aiolos)) [nM] | DC50 (GSPT1) [nM] | inhibition at 1 µM (IKZF2 (Helios) [1]) [%] | DC50 (IKZF2 (Helios) [2]) [nM] | inhibition at 1 µM (IKZF3 (Aiolos)) [%] | SMILES
61 | > 30000 | 88.2 | 0.1 | 26.2 | CC1(C(=O)N2CCC(C3CN([C@H]4CCCC[C@@H]4Oc4ccc5c(c4)CN(C4CCC(=O)NC4=O)C5=O)C3)CC2)CC1 (stereo partly drawn) [Compound 31-A, 3-(5-(((1S,2S)-2-(3-(1-(1-methylcyclopropane-1-carbonyl)piperidin-4-yl)azetidin-1-yl)cyclohexyl)oxy)-1-oxoisoindolin-2-yl)piperidine-2,6-dione]
8070 | > 30000 | 88.2 | 1 | 23.5 | CC1CC1C(=O)N1CCC(C2CN([C@H]3CCCC[C@@H]3Oc3ccc4c(c3)CN(C3CCC(=O)NC3=O)C4=O)C2)CC1 (stereo partly drawn) [Compound 35-A, 3-(5-(((1S,2S)-2-(3-(1-(2-methylcyclopropane-1-carbonyl)piperidin-4-yl)azetidin-1-yl)cyclohexyl)oxy)-1-oxoisoindolin-2-yl)piperidine-2,6-dione]
> 30000 | > 30000 | 85.4 | 2 | – | O=C1CCC(N2Cc3cc(O[C@H]4CCCC[C@@H]4N4CC(C5CCN(S(=O)(=O)C6CCC6)CC5)C4)ccc3C2=O)C(=O)N1 (stereo partly drawn) [Compound 57-A, 3-(5-(((1S,2S)-2-(3-(1-(cyclobutylsulfonyl)piperidin-4-yl)azetidin-1-yl)cyclohexyl)oxy)-1-oxoisoindolin-2-yl)piperidine-2,6-dione]
544 | > 30000 | 88 | 2 | 24.9 | O=C1CCC(N2Cc3cc(O[C@H]4CCCC[C@@H]4N4CC(C5CCN(C(=O)CC6CC6)CC5)C4)ccc3C2=O)C(=O)N1 (stereo partly drawn) [Compound 34-A, 3-(5-(((1S,2S)-2-(3-(1-(2-cyclopropylacetyl)piperidin-4-yl)azetidin-1-yl)cyclohexyl)oxy)-1-oxoisoindolin-2-yl)piperidine-2,6-dione]
71 | > 30000 | 84.7 | 1 | 24.1 | O=C1CCC(N2Cc3cc(O[C@H]4CCCC[C@@H]4N4CC(C5CCN(C(=O)C6CC(F)(F)C6)CC5)C4)ccc3C2=O)C(=O)N1 (stereo partly drawn) [Compound 32-A, 3-(5-(((1S,2S)-2-(3-(1-(3,3-difluorocyclobutane-1-carbonyl)piperidin-4-yl)azetidin-1-yl)cyclohexyl)oxy)-1-oxoisoindolin-2-yl)piperidine-2,6-dione]
110 | > 30000 | 84.6 | 8 | 44 | N#CC1(C(=O)N2CCC(C3CN([C@H]4CCCC[C@@H]4Oc4ccc5c(c4)CN(C4CCC(=O)NC4=O)C5=O)C3)CC2)CC1 (stereo partly drawn) [Compound 27-A, 1-(4-(1-((1S,2S)-2-((2-(2,6-dioxopiperidin-3-yl)-1-oxoisoindolin-5-yl)oxy)cyclohexyl)azetidin-3-yl)piperidine-1-carbonyl)cyclopropane-1-carbonitrile]
